Values quoted from earlier work, collected in US20060127910A1, “Bpl1 as an antifungal target” (priority 2002, published 2006).

Settings: mice, DOX 2 mg/ml in 5% sucrose solution as drinking water, approx. 5 ml per day

concentration of DOX in kidney (kidney): > 10 mg/g of kidney | concentration of DOX in liver (liver): > 8 mg/g of liver | concentration of DOX in serum (serum): more than 2 mg/ml of serum
Compound: C[C@H]1c2cccc(O)c2C(O)=C2C(=O)[C@]3(O)C(O)=C(C(N)=O)C(=O)[C@@H](N(C)C)[C@@H]3[C@@H](O)[C@@H]21 [DOX, doxycycline]
